Measured values as given in patent US6569633B1, “Modulation of the sulfonylurea receptor and calcium in adipocytes for treatment of obesity/diabetes” (Artecel Science, Inc., priority 1998, dated 2003).

How the values were obtained:
[1] = system: GPDH activity in human adipocytes; assay: GPDH activity in human adipocytes; type: cell-based; details: 10 μM glibenclamide plus 10 μM diazoxide
Procedure: FIG. 3. The lipogenic effect of glibenclamide in human adipocytes. As an indicator of lipogenic stimulation, both FAS and GPDH activity were measured. A. Glibenclamide stimulation of FAS activity. Human adipocytes were treated with 10 μM glibenclamide alone, 10 μM glibenclamide plus 10 μM diazoxide or 10 μM glibenclamide plus 30 μM nitrendipine for 48 hr. FAS was measured as described (6, 14). *p<0.001 vs. Control. B. Glibenclamide stimulation of GPDH activity. Human adipocytes were treated with 10 μM glibenclamide or 10 μM glibenclamide plus 10 μM diazoxide for 48 hr. GPDH activity was measured as described (14). *p<0.01 vs. Control.
To study the role of adipocyte SUR1 in regulating lipogenesis, we treated human adipocyte with SUR1 agonist and antagonist using FAS and GPDH activities as lipogenic markers. Human adipocytes were incubated in 24-well plates with the treatments indicated for 48 hr. FAS and GPDH activities were determined spectrophotometrically in crude cytosolic extracts of human adipocytes by measuring the oxidation rate of NADPH or NADH respectively, as previously described (14). The protein correction was measured by a modified Bradford method using Coomassie Blue dye (Pierce, Rockford, Ill.).

obese Zucker rats = details: cited from earlier work
[2] = system: hyperinsulinemic obese adults; details: cited from earlier work
[3] = system: FAS activity in human adipocytes; assay: Fatty acid synthase (FAS) activity in human adipocytes; type: cell-based
human adipocytes = assay: Intracellular Ca2+ ([Ca2+]i) by fura-2 fluorometry in isolated human adipocytes; type: cell-based
Procedure: FIG. 2. Glibenclamide stimulation of [Ca^2+]i in isolated human adipocyte. [Ca^2+]i in isolated human adipocytes was determined fluorometrically as previously described (4,7). Briefly, the human adipocytes isolated as described above were incubated in DMEM medium overnight for cell recovery. Prior to [Ca^2+]i measurement, adipocytes were pre-incubated in serum-free medium for 2 hrs, rinsed with HBSS solution containing the following components in mM: NaCl 138, CaCl2 1.8, MgSO4 0.8, NaH2PO4 0.9, NaHCO3 4, glucose 20, glutamine 6, HEPES 20 and BSA 1%. Cells were then loaded with fura-2 acetoxymethyl ester (10 μM) in the same buffer for 45 min at 37° C. in the dark with continuous shaking. To remove extracellular dye, cells were rinsed with HBSS for 3 times and resuspended in this solution at a concentration of 2×10^5 cells/ml. [Ca^2+]i was measured using dual excitation (340 and 380 nm) and single emission (510 nm) fluorometry. Following the establishment of stable baseline, the response to glibenclamide (10 and 20 μM) was determined. Digitonin (25 μM) and Tris/EGTA (100 mM) were used to measure maximal and minimal fluorescence to calibrate the signals, and final [Ca^2+]i was then calculated by the equation of Grynkiewicz et al. (17). […] Glibenclamide (Glib) was added at time designated by the arrow. B. The dose-responsive effect of glibenclamide on [Ca^2+]i in human adipocytes. Glibenclamide was added at 10 and 20 µM at the indicated times. *p<0.05 vs. Control, **p<0.05 vs. 10 μM glibenclamide.
The functionality of the SUR1 receptor was determined with respect to calcium mobilization and small molecule effects. [Ca^2+]i response was measured fluorometrically in isolated human adipocytes using a standard method (2,16). Briefly, isolated human adipocytes were incubated in DMEM or any other suitable medium such as Ham's F-10, Modified Eagle's media plus 5-10% fetal calf serum overnight for cell recovery. Prior to [Ca^2+]i measurement, adipocytes were pre-incubated in serum-free medium for 2 hrs, rinsed with HBSS solution containing the following components in mM: NaCl 138, CaCl2 1.8, MgSO4 0.8, NaH2PO4 0.9, NaHCO3 4, glucose 20, glutamine 6, HEPES 20 and BSA 1%. Cells were then loaded with fura-2 acetoxymethyl ester (10 μM) in the same buffer for 30-60 min at 37° C. in dark with continuous shaking. To remove extracellular dye, cells were rinsed with HBSS for three times and resuspended in this solution at a concentration of 1-10×10^5 cells/ml. [Ca^2+]i was measured using dual excitation (340 and 380 nm) and single emission (510 nm) fluorometry. Following the establishment of stable baseline, the response to a SUR agonist such as glibenclamide (1-20 μM) can be determined. Digitonin (25 μM) and Tris/EGTA (100 mM) were used to measure maximal and minimal fluorescence to calibrate the signals, and final [Ca^2+]i was then calculated by a known method such as described in Grynkiewicz et al (17).
Correlation of lipolysis with flux of intracellular calcium ([Ca^2+]i) concentration is then performed. [Ca^2+]i is measured in primary adipocytes. For primary adipocytes, 3 ml of cells are resuspended in 6 ml of HBSS and fura-2/AM was loaded for 80 min at 37° C. Extracellular fura-2/AM is washed three times with HBSS by centrifugation. [Ca^2+]i levels are then measured fluorometrically in suspensions using dual excitation (340 and 380 nm)/single emission (510 nm) fluorometry and [Ca^2+]i is calculated by the computer in the fluorometer. As a control, after loading fura-2/AM cells are pretreated with nitrendipine (RBI, Natick, Mass.) (30 μM, final concentration) for 10 min at 37° C.

For CC1=NS(=O)(=O)c2cc(Cl)ccc2N1 [diazoxide], the “glibenclamide-stimulated increase in GPDH activity” value [1] is given as “totally blocked”, the effect on obesity (obese Zucker rats) is given as “antiobesity effect” and the effect on obesity [2] is given as “significant antiobesity effect”. The “fatty acid synthase activity” value ([3]; 1 nM insulin and 5 μM diazoxide) was 7.08 ± 0.10 nmol/min/mg, the “fatty acid synthase activity” value ([3]; 5 μM diazoxide and 2 μM glibenclamide) was 1.00±0.10 nmol/min/mg protein and the “fatty acid synthase activity” value ([3]; 5 μM diazoxide and 10 μM glibenclamide) was 1.21±0.31 nmol/min/mg protein. The “glibenclamide-caused increase in FAS activity” value ([3]; 10 μM glibenclamide plus 10 μM diazoxide, 48 hr) was “completely blocked”, the “fatty acid synthase activity” value ([3]; 40 mM KCl in the presence of 5 μM diazoxide) was 3.24±0.41 nmol/min/mg protein and the “glibenclamide-induced increases in fatty acid synthase activity” value ([3]; inclusion of 5 μM diazoxide) was “completely prevented”. For the same compound, the “[Ca2+]i response to any dose of glibenclamide” value (human adipocytes; in the presence of 5 μM diazoxide) was “no detectable response” and the “[Ca2+]i response to any dose of glibenclamide” value (human adipocytes; in the presence of 2-10 μM diazoxide) was “no detectable response”.
